The structures appear in SMILES notation. pIC50: −log10 of the molar value.

The experiment deals with T1, HPK1 (Homo sapiens, UniProt Q92918).
T1 construct: purchased Invitrogen
In words: HPK1 biochemical enzyme assay (microfluidic mobility shift assay). The following applies: 1000 uM (1 mM) ATP; Caliper mobility shift; 1.5 nM HPK1; 30 min preincubation; read-out: HPK1 1000UMATP caliper IC50. An outline of the steps:
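IC50 values, grouped into activity categories, come from 10-point titrations (top final 3 μM) preincubated 30 min with 1.5 nM enzyme and substrate at pH 7.4. ATP (1 mM), substrate (1 μM) and MgCl2 (5 mM) then added; after 60 min at RT, product separated by microfluidic mobility shift.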

T1 sequence (Q92918 whole entry): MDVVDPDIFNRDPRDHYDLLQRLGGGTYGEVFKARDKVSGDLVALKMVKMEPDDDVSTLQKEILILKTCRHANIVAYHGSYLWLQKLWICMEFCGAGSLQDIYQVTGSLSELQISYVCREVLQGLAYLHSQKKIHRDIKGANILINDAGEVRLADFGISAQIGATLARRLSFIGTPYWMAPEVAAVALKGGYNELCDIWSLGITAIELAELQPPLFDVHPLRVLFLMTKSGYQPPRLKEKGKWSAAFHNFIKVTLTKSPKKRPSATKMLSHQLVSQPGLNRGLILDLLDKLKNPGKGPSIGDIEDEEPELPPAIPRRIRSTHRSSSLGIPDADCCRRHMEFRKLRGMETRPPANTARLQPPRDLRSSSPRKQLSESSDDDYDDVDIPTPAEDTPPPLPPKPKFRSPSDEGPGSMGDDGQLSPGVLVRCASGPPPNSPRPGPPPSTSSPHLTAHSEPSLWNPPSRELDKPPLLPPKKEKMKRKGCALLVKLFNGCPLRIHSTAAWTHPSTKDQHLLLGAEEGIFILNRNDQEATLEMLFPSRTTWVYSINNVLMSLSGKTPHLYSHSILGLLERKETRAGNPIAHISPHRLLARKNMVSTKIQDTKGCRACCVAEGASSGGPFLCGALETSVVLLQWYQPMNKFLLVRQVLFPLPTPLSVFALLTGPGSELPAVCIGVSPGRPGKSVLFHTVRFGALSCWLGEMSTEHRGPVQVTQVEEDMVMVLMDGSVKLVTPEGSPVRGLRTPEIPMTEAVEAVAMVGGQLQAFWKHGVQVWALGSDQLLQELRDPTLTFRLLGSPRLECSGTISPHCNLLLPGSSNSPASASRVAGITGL

As for `O=c1[nH]ccc2nc(-c3cnc4ccccn34)cc(Nc3ccc(N4CCC(O)CC4)cn3)c12` [I-284, 4-[[5-(4-hydroxy-1-piperidy)-2-pyridyl]amino]-2-imidazo[1,2-a]pyridin-3-yl-6H-1,6-naphthyridin-5-one], the negative-log IC50 (pIC50) is under 6.00.

Source of the values: US12252488B2 (Nimbus Saturn, Inc., priority 2021, dated 2025).
